Assay results as given in patent US20230085307A1, “PYRIDAZINONE COMPOUND AND HERBICIDE” (NISSAN CHEMICAL CORPORATION, priority 2019, published 2023).

How the values were obtained:
barnyard grass [1] = test: Test Example 3: herbicidal effect by foliage application, Wagner pot (Table 18, symbol H); type: in vivo, barnyard grass (Echinochloa crus-galli)
How it was run: (§1)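 Plants were sown in alluvial soil held under 0.1–0.5 cm standing water and grown 14 days in a greenhouse at 25–30 °C. An emulsifiable formulation, water-diluted to the set dose, was then sprayed onto the foliage, and effects were scored three weeks later using previously defined criteria.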

Chinese sprangletop = test: Test Example 3: herbicidal effect by foliage application, Wagner pot (Table 18, symbol D); type: in vivo, chinese sprangletop (Leptochloa chinensis)
How it was run: as §1

rice flat sedge = test: Test Example 3: herbicidal effect by foliage application, Wagner pot (Table 18, symbol E); type: in vivo, rice flat sedge (Cyperus iria)
How it was run: as §1

southern crabgrass [2] = test: Test Example 4: herbicidal effect by soil treatment (Table 19, symbol F); type: in vivo, southern crabgrass (Digitaria ciliaris); details: amount of applied herbicide 320 g/ha
How it was run: (§2)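 Herbicidal effect was rated 3 weeks after treatment, using the scoring criteria of an earlier test. The compound, formulated as an emulsion and diluted in water to a set herbicide amount, had been sprayed uniformly on soil over freshly sown seeds. Growth took place in a greenhouse at 25° C. to 30° C.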

green foxtail [3] = test: Test Example 4: herbicidal effect by soil treatment (Table 19, symbol G); type: in vivo, green foxtail (Setaria viridis); details: amount of applied herbicide 320 g/ha
How it was run: as §2

barnyard grass [4] = test: Test Example 4: herbicidal effect by soil treatment (Table 19, symbol H); type: in vivo, barnyard grass (Echinochloa crus-galli); details: amount of applied herbicide 320 g/ha
How it was run: as §2

wild oat [5] = test: Test Example 4: herbicidal effect by soil treatment (Table 19, symbol I); type: in vivo, wild oat (Avena fatua); details: amount of applied herbicide 320 g/ha
How it was run: as §2

Italian ryegrass [6] = test: Test Example 4: herbicidal effect by soil treatment (Table 19, symbol K); type: in vivo, Italian ryegrass (Lolium multiflorum); details: amount of applied herbicide 320 g/ha
How it was run: as §2

windgrass [7] = test: Test Example 4: herbicidal effect by soil treatment (Table 19, symbol L); type: in vivo, windgrass (Apera spica-venti); details: amount of applied herbicide 320 g/ha
How it was run: as §2

velvetleaf [8] = test: Test Example 4: herbicidal effect by soil treatment (Table 19, symbol M); type: in vivo, velvetleaf (Abutilon theophrasti); details: amount of applied herbicide 320 g/ha
How it was run: as §2

redroot pigweed [9] = test: Test Example 4: herbicidal effect by soil treatment (Table 19, symbol N); type: in vivo, redroot pigweed (Amaranthus retroflexus); details: amount of applied herbicide 320 g/ha
How it was run: as §2

lambsquarters [10] = test: Test Example 4: herbicidal effect by soil treatment (Table 19, symbol O); type: in vivo, lambsquarters (Chenopodium album); details: amount of applied herbicide 320 g/ha
How it was run: as §2

chickweed [11] = test: Test Example 4: herbicidal effect by soil treatment (Table 19, symbol P); type: in vivo, common chickweed (Stellaria media); details: amount of applied herbicide 320 g/ha
How it was run: as §2

persian speedwell [12] = test: Test Example 4: herbicidal effect by soil treatment (Table 19, symbol R); type: in vivo, Persian speedwell (Veronica persica); details: amount of applied herbicide 320 g/ha
How it was run: as §2

southern crabgrass [13] = test: Test Example 5: herbicidal effect by foliage application, plastic box (Table 20, symbol F); type: in vivo, southern crabgrass (Digitaria ciliaris); details: 320 g/ha, evaluated three weeks after application
How it was run: (§3)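 Foliar spray test: emulsion formulation diluted in water to a set application rate, sprayed onto 14-day-old plants raised in diluvial soil at 25° C to 30° C under glass. Both herbicidal effect and crop effect rated visually three weeks later.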

green foxtail [14] = test: Test Example 5: herbicidal effect by foliage application, plastic box (Table 20, symbol G); type: in vivo, green foxtail (Setaria viridis); details: 320 g/ha, evaluated three weeks after application
How it was run: as §3

barnyard grass [15] = test: Test Example 5: herbicidal effect by foliage application, plastic box (Table 20, symbol H); type: in vivo, barnyard grass (Echinochloa crus-galli); details: 320 g/ha, evaluated three weeks after application
How it was run: as §3

wild oat [16] = test: Test Example 5: herbicidal effect by foliage application, plastic box (Table 20, symbol I); type: in vivo, wild oat (Avena fatua); details: 320 g/ha, evaluated three weeks after application
How it was run: as §3

blackgrass = test: Test Example 5: herbicidal effect by foliage application, plastic box (Table 20, symbol J); type: in vivo, blackgrass (Alopecurus myosuroides); details: 320 g/ha, evaluated three weeks after application
How it was run: as §3

Italian ryegrass [17] = test: Test Example 5: herbicidal effect by foliage application, plastic box (Table 20, symbol K); type: in vivo, Italian ryegrass (Lolium multiflorum); details: 320 g/ha, evaluated three weeks after application
How it was run: as §3

windgrass [18] = test: Test Example 5: herbicidal effect by foliage application, plastic box (Table 20, symbol L); type: in vivo, windgrass (Apera spica-venti); details: 320 g/ha, evaluated three weeks after application
How it was run: as §3

velvetleaf [19] = test: Test Example 5: herbicidal effect by foliage application, plastic box (Table 20, symbol M); type: in vivo, velvetleaf (Abutilon theophrasti); details: 320 g/ha, evaluated three weeks after application
How it was run: as §3

redroot pigweed [20] = test: Test Example 5: herbicidal effect by foliage application, plastic box (Table 20, symbol N); type: in vivo, redroot pigweed (Amaranthus retroflexus); details: 320 g/ha, evaluated three weeks after application
How it was run: as §3

lambsquarters [21] = test: Test Example 5: herbicidal effect by foliage application, plastic box (Table 20, symbol O); type: in vivo, lambsquarters (Chenopodium album); details: 320 g/ha, evaluated three weeks after application
How it was run: as §3

chickweed [22] = test: Test Example 5: herbicidal effect by foliage application, plastic box (Table 20, symbol P); type: in vivo, common chickweed (Stellaria media); details: 320 g/ha, evaluated three weeks after application
How it was run: as §3

persian speedwell [23] = test: Test Example 5: herbicidal effect by foliage application, plastic box (Table 20, symbol R); type: in vivo, Persian speedwell (Veronica persica); details: 320 g/ha, evaluated three weeks after application
How it was run: as §3

[24] = amount of applied herbicide 320 g/ha
[25] = foliage application after 14-day growth

Cc1nn(C)c(=O)c(-c2c(-c3ccccc3C(F)(F)F)sc3ccc(F)cc23)c1O [2-229]
herbicidal effect on H: barnyard grass (barnyard grass [1]; [24]): 4 (Herbicidal rate of 70% or more and less than 90%) | herbicidal effect on D: Chinese sprangletop (Chinese sprangletop; [24]): 3 (Herbicidal rate of 40% or more and less than 70%) | herbicidal effect on E: rice flat sedge (rice flat sedge; [24]): 4 (Herbicidal rate of 70% or more and less than 90%) | herbicidal effect on F: southern crabgrass (southern crabgrass [2]): 3 (Herbicidal rate of 40% or more and less than 70%) | herbicidal effect on G: green foxtail (green foxtail [3]): 3 (Herbicidal rate of 40% or more and less than 70%) | herbicidal effect on H: barnyard grass (barnyard grass [4]): 1 (Herbicidal rate of 5% or more and less than 20%) | herbicidal effect on I: wild oat (wild oat [5]): 0 (Herbicidal rate of 5% or less (almost no effect)) | herbicidal effect on K: Italian ryegrass (Italian ryegrass [6]): 2 (Herbicidal rate of 20% or more and less than 40%) | herbicidal effect on L: windgrass (windgrass [7]): 0 (Herbicidal rate of 5% or less (almost no effect)) | herbicidal effect on M: velvetleaf (velvetleaf [8]): 1 (Herbicidal rate of 5% or more and less than 20%) | herbicidal effect on N: redroot pigweed (redroot pigweed [9]): 2 (Herbicidal rate of 20% or more and less than 40%) | herbicidal effect on O: lambsquarters (lambsquarters [10]): 3 (Herbicidal rate of 40% or more and less than 70%) | herbicidal effect on P: chickweed (chickweed [11]): 1 (Herbicidal rate of 5% or more and less than 20%) | herbicidal effect on R: persian speedwell (persian speedwell [12]): 0 (Herbicidal rate of 5% or less (almost no effect)) | herbicidal effect on F: southern crabgrass (criteria 0-5) (southern crabgrass [13]; foliage application): 3 (Herbicidal rate of 40% or more and less than 70%) | herbicidal effect on G: green foxtail (criteria 0-5) (green foxtail [14]; foliage application): 5 (Herbicidal rate of 90% or more (almost completely withered)) | herbicidal effect on H: barnyard grass (criteria 0-5) (barnyard grass [15]; foliage application): 3 (Herbicidal rate of 40% or more and less than 70%) | herbicidal effect on I: wild oat (criteria 0-5) (wild oat [16]; foliage application): 1 (Herbicidal rate of 5% or more and less than 20%) | herbicidal effect on J: blackgrass (criteria 0-5) (blackgrass; foliage application): 3 (Herbicidal rate of 40% or more and less than 70%) | herbicidal effect on K: Italian ryegrass (criteria 0-5) (Italian ryegrass [17]; foliage application): 4 (Herbicidal rate of 70% or more and less than 90%) | herbicidal effect on L: windgrass (criteria 0-5) (windgrass [18]; foliage application): 4 (Herbicidal rate of 70% or more and less than 90%) | herbicidal effect on M: velvetleaf (criteria 0-5) (velvetleaf [19]; foliage application): 4 (Herbicidal rate of 70% or more and less than 90%) | herbicidal effect on N: redroot pigweed (criteria 0-5) (redroot pigweed [20]; foliage application): 4 (Herbicidal rate of 70% or more and less than 90%) | herbicidal effect on O: lambsquarters (criteria 0-5) (lambsquarters [21]; foliage application): 4 (Herbicidal rate of 70% or more and less than 90%) | herbicidal effect on P: chickweed (criteria 0-5) (chickweed [22]; foliage application): 5 (Herbicidal rate of 90% or more (almost completely withered)) | herbicidal effect on R: persian speedwell (criteria 0-5) (persian speedwell [23]; foliage application): 5 (Herbicidal rate of 90% or more (almost completely withered))

COc1ccccc1-c1sc2cc(OS(=O)(=O)C(F)(F)F)ccc2c1-c1c(O)c(C)nn(C)c1=O [3-161]
herbicidal effect on barnyard grass (H) (barnyard grass [1]; 320 g/ha): 5 (Herbicidal rate of 90% or more (almost completely withered)) | herbicidal effect on Chinese sprangletop (D) (Chinese sprangletop; 320 g/ha): 3 (Herbicidal rate of 40% or more and less than 70%) | herbicidal effect on rice flat sedge (E) (rice flat sedge; 320 g/ha): 3 (Herbicidal rate of 40% or more and less than 70%) | Herbicidal effect by soil treatment, F: southern crabgrass (southern crabgrass [2]): 0 (Herbicidal rate of 5% or less (almost no effect)) | Herbicidal effect by soil treatment, G: green foxtail (green foxtail [3]): 0 (Herbicidal rate of 5% or less (almost no effect)) | Herbicidal effect by soil treatment, H: barnyard grass (barnyard grass [4]): 0 (Herbicidal rate of 5% or less (almost no effect)) | Herbicidal effect by soil treatment, I: wild oat (wild oat [5]): 0 (Herbicidal rate of 5% or less (almost no effect)) | Herbicidal effect by soil treatment, K: Italian ryegrass (Italian ryegrass [6]): 0 (Herbicidal rate of 5% or less (almost no effect)) | Herbicidal effect by soil treatment, L: windgrass (windgrass [7]): 0 (Herbicidal rate of 5% or less (almost no effect)) | Herbicidal effect by soil treatment, M: velvetleaf (velvetleaf [8]): 0 (Herbicidal rate of 5% or less (almost no effect)) | Herbicidal effect by soil treatment, N: redroot pigweed (redroot pigweed [9]): 4 (Herbicidal rate of 70% or more and less than 90%) | Herbicidal effect by soil treatment, O: lambsquarters (lambsquarters [10]): 0 (Herbicidal rate of 5% or less (almost no effect)) | Herbicidal effect by soil treatment, P: chickweed (chickweed [11]): 0 (Herbicidal rate of 5% or less (almost no effect)) | Herbicidal effect by soil treatment, R: persian speedwell (persian speedwell [12]): 0 (Herbicidal rate of 5% or less (almost no effect)) | herbicidal effect on F: southern crabgrass (evaluation grade 0-5) (southern crabgrass [13]; [25]): 0 (Herbicidal rate of 5% or less (almost no effect)) | herbicidal effect on G: green foxtail (evaluation grade 0-5) (green foxtail [14]; [25]): 3 (Herbicidal rate of 40% or more and less than 70%) | herbicidal effect on H: barnyard grass (evaluation grade 0-5) (barnyard grass [15]; [25]): 3 (Herbicidal rate of 40% or more and less than 70%) | herbicidal effect on I: wild oat (evaluation grade 0-5) (wild oat [16]; [25]): 0 (Herbicidal rate of 5% or less (almost no effect)) | herbicidal effect on J: blackgrass (evaluation grade 0-5) (blackgrass; [25]): 4 (Herbicidal rate of 70% or more and less than 90%) | herbicidal effect on K: Italian ryegrass (evaluation grade 0-5) (Italian ryegrass [17]; [25]): 4 (Herbicidal rate of 70% or more and less than 90%) | herbicidal effect on L: windgrass (evaluation grade 0-5) (windgrass [18]; [25]): 4 (Herbicidal rate of 70% or more and less than 90%) | herbicidal effect on M: velvetleaf (evaluation grade 0-5) (velvetleaf [19]; [25]): 2 (Herbicidal rate of 20% or more and less than 40%) | herbicidal effect on N: redroot pigweed (evaluation grade 0-5) (redroot pigweed [20]; [25]): 4 (Herbicidal rate of 70% or more and less than 90%) | herbicidal effect on O: lambsquarters (evaluation grade 0-5) (lambsquarters [21]; [25]): 3 (Herbicidal rate of 40% or more and less than 70%) | herbicidal effect on P: chickweed (evaluation grade 0-5) (chickweed [22]; [25]): 5 (Herbicidal rate of 90% or more (almost completely withered)) | herbicidal effect on R: persian speedwell (evaluation grade 0-5) (persian speedwell [23]; [25]): 5 (Herbicidal rate of 90% or more (almost completely withered))
